US12384741B2, “Lipid nanoparticle compositions for delivering circular polynucleotides” (Orna Therapeutics, Inc., priority 2021, dated 2025)

Legend:
[1] = tested on: T cells, myeloid cells, B cells, and NK cells; experiment: mOX40L expression in splenic immune cells (flow cytometry); type: in vivo, C57BL/6 mice; conditions: LNP 50:10:38.5:1.5, IL:P 5.7, 1 mg/kg intravenously, 24 hours; vs Lipid 15 of Table 10f
Procedure: The ionizable lipid: helper lipid: cholesterol: PEG-lipid molar ratio of these LNPs was 50:10:38.5:1.5. Dialysis of the LNPs were performed using PBS. C57BL/6 female mice (6-8 weeks, n=4) were dosed at either LNP comprising Lipid 1 of Table 10e or the Lipid 15 of Table 10f at 1 mg/kg intravenously. At 24 hours, the spleen from the mice were collected for flow cytometry analysis. mOX40L transfection of Lipid 1 of Table 10e and Lipid 15 of Table 10f were compared in T cells, myeloid cells, B cells, and NK cells.

splenic T cells = experiment: mOX40L expression in splenic T cells; type: in vivo, C57BL/6 mice; conditions: 1 mg/kg intravenously, 24 hours; IL:P 5.7, 50:10:38.5:1.5
Procedure: The ionizable lipid: helper lipid: cholesterol: PEG-lipid molar ratio of these LNPs was 50:10:38.5:1.5. C57BL/6 female mice (6-8 weeks, n=4) were dosed at 1 mg/kg intravenously. At 24 hours, the spleen from the mice were collected for flow cytometry analysis, tested for weight loss and measured for serum alanine aminotransferase (ALT) after blood collection. mOX40L expression was measured in splenic T cells.

With `CCCCCCCCCCCCC(O)CN(CCCO)CCCCCCCC(=O)OC(CCCCCCCC)CCCCCCCC` (centres unmarked) [Lipid 1 of Table 10e, heptadecan-9-yl 8-((3-hydroxypropyl)(2-hydroxytetradecyl)amino)octanoate] the “mOX40L transfection in splenic immune cells” value [1] was “comparable or higher levels of mOX40L transfection” and the “mOX40L expression in splenic T cells” value (splenic T cells) was “resulted in expression of mOX40L in splenic T cells”.
